Results reported in patent US10457703B2, “Bile acid derivatives as FXR/TGR5 agonists and methods of use thereof” (ENANTA PHARMACEUTICALS, INC., priority 2015, dated 2019).

Target: human FXR (NR1H4) (Homo sapiens (Human), UniProt Q96RI1)
Test: Human FXR (NR1H4) Assay (Gal4 promoter driven luciferase reporter, Indigo Bioscience kit);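 for Efficacy (%): 100% equals the efficacy of CDCA; efficacy normalized to CDCA set as 100%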
Format: cell-based
Details: for EC50: Human FXR (NR1H4) Assay, potency ranges; for Emax: read-out: Efficacy (%)
How it was run: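 CHO reporter cells expressing human FXR with an FXR-responsive luciferase reporter, treated with compound doses at 0.2% DMSO. Incubation lasted 22 h at 37 °C before luciferase detection reagent was added. Luminescence was then read.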

Sequence of human FXR (NR1H4) (Q96RI1 whole entry, the tested form may be a part): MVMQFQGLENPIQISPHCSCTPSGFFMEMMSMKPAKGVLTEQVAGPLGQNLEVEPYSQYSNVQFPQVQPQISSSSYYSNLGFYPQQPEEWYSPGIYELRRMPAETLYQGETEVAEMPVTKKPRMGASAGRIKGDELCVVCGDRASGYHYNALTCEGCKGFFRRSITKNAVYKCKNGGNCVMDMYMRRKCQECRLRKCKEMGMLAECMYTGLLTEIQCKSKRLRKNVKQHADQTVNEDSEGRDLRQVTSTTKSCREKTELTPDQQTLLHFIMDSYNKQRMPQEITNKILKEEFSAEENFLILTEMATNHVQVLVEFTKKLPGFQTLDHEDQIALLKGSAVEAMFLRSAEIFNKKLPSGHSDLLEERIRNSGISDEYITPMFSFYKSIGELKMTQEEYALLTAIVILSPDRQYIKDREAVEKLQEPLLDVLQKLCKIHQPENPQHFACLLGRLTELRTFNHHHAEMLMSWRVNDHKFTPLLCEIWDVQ

Compound | EC50 | Emax
CC[C@H]1[C@@H](O)[C@@H]2[C@H](CC[C@]3(C)[C@@H]([C@H](C)CCOC(=O)NS(=O)(=O)c4ccccc4C(F)(F)F)CC[C@@H]23)[C@@]2(C)CC[C@@H](O)C[C@@H]12 [Example 80] | 100 to 1000 nM | 363%
CC[C@H]1[C@@H](O)[C@@H]2[C@H](CC[C@]3(C)[C@@H]([C@H](C)CCOC(=O)NS(=O)(=O)c4ccc(OC)cc4)CC[C@@H]23)[C@@]2(C)CC[C@@H](O)C[C@@H]12 [Example 52] | < 100 nM | 226%
CC[C@H]1[C@@H](O)[C@@H]2[C@H](CC[C@]3(C)[C@@H]([C@H](C)CCCOC(=O)N4CCOCC4)CC[C@@H]23)[C@@]2(C)CC[C@@H](O)C[C@@H]12 [Example 130] | 1000 to 10000 nM | 256%
CC[C@H]1[C@@H](O)[C@@H]2[C@H](CC[C@]3(C)[C@@H]([C@H](C)CCOC(=O)NS(=O)(=O)c4cccc(OC(F)(F)F)c4)CC[C@@H]23)[C@@]2(C)CC[C@@H](O)C[C@@H]12 [Example 63] | < 100 nM | 396%
CC[C@H]1[C@@H](O)[C@@H]2[C@H](CC[C@]3(C)[C@@H]([C@H](C)CCOC(=O)N4CC[C@H](O)C4)CC[C@@H]23)[C@@]2(C)CC[C@@H](O)C[C@@H]12 [Example 181] | < 100 nM | 382%
CC[C@H]1[C@@H](O)[C@@H]2[C@H](CC[C@]3(C)[C@@H]([C@H](C)CCOC(=O)N[C@@H]4CCC[C@H]4O)CC[C@@H]23)[C@@]2(C)CC[C@@H](O)C[C@@H]12 [Example 207] | 100 to 1000 nM | 188%
CC[C@H]1[C@@H](O)[C@@H]2[C@H](CC[C@]3(C)[C@@H]([C@H](C)CCOC(=O)Nc4ccccc4)CC[C@@H]23)[C@@]2(C)CC[C@@H](O)C[C@@H]12 [Example 191] | 1000 to 10000 nM | 330%
CC[C@H]1[C@@H](O)[C@@H]2[C@H](CC[C@]3(C)[C@@H]([C@H](C)CCOC(=O)NS(=O)(=O)c4ccc(Cl)cc4)CC[C@@H]23)[C@@]2(C)CC[C@@H](O)C[C@@H]12 [Example 61] | < 100 nM | 270%
CC[C@H]1[C@@H](O)[C@@H]2[C@H](CC[C@]3(C)[C@@H]([C@H](C)CCOC(=O)NS(=O)(=O)C4CCC4)CC[C@@H]23)[C@@]2(C)CC[C@@H](O)C[C@@H]12 [Example 104-i] | < 100 nM | 314%
CC[C@H]1[C@@H](O)[C@@H]2[C@H](CC[C@]3(C)[C@@H]([C@H](C)CCOC(=O)N4CC[C@H](CO)C4)CC[C@@H]23)[C@@]2(C)CC[C@@H](O)C[C@@H]12 [Example 211] | < 100 nM | 198%
CC[C@H]1[C@@H](O)[C@@H]2[C@H](CC[C@]3(C)[C@@H]([C@H](C)CCOC(=O)NS(=O)(=O)N4CCCCC4)CC[C@@H]23)[C@@]2(C)CC[C@@H](O)C[C@@H]12 [Example 69] | < 100 nM | 368%
CC[C@H]1[C@@H](O)[C@@H]2[C@H](CC[C@]3(C)[C@@H]([C@H](C)CCCOC(=O)NS(=O)(=O)c4ccc(-c5ccccc5)cc4)CC[C@@H]23)[C@@]2(C)CC[C@@H](O)C[C@@H]12 [Example 116] | 1000 to 10000 nM | 294%
CC[C@H]1[C@@H](O)[C@@H]2[C@H](CC[C@]3(C)[C@@H]([C@H](C)CCOC(=O)NS(=O)(=O)c4ccccc4F)CC[C@@H]23)[C@@]2(C)CC[C@@H](O)C[C@@H]12 [Example 71] | 100 to 1000 nM | 317%
CC[C@H]1[C@@H](O)[C@@H]2[C@H](CC[C@]3(C)[C@@H]([C@H](C)CCOC(=O)NCCc4cccs4)CC[C@@H]23)[C@@]2(C)CC[C@@H](O)C[C@@H]12 [Example 143] | 100 to 1000 nM | 202%
CC[C@H]1[C@@H](O)[C@@H]2[C@H](CC[C@]3(C)[C@@H]([C@H](C)CCCOC(=O)NS(=O)(=O)N(C)C)CC[C@@H]23)[C@@]2(C)CC[C@@H](O)C[C@@H]12 [Example 118] | 100 to 1000 nM | 367%
CC[C@H]1[C@@H](O)[C@@H]2[C@H](CC[C@]3(C)[C@@H]([C@H](C)CCOC(=O)NS(=O)(=O)c4ccc(C(C)(C)C)s4)CC[C@@H]23)[C@@]2(C)CC[C@@H](O)C[C@@H]12 [Example 62] | < 100 nM | 299%
CC[C@H]1[C@@H](O)[C@@H]2[C@H](CC[C@]3(C)[C@@H]([C@H](C)CCOC(=O)NS(=O)(=O)C4CCCCC4)CC[C@@H]23)[C@@]2(C)CC[C@@H](O)C[C@@H]12 [Example 104-a] | < 100 nM | 242%
CC[C@H]1[C@@H](O)[C@@H]2[C@H](CC[C@]3(C)[C@@H]([C@H](C)CCOC(=O)NCCCN4CCOCC4)CC[C@@H]23)[C@@]2(C)CC[C@@H](O)C[C@@H]12 [Example 152] | 100 to 1000 nM | 276%
CC[C@H]1[C@@H](O)[C@@H]2[C@H](CC[C@]3(C)[C@@H]([C@H](C)CCOC(=O)Nc4ccc(C(C)(C)C)cc4)CC[C@@H]23)[C@@]2(C)CC[C@@H](O)C[C@@H]12 [Example 166] | 1000 to 10000 nM | 30%

Compound | EC50 | Emax
CC[C@H]1[C@@H](O)[C@@H]2[C@H](CC[C@]3(C)[C@@H]([C@H](C)COC(=O)NCc4ccccc4)CC[C@@H]23)[C@@]2(C)CC[C@@H](O)C[C@@H]12 [Example 205] | 1000 to 10000 nM | 5%
CC[C@H]1[C@@H](O)[C@@H]2[C@H](CC[C@]3(C)[C@@H]([C@H](C)CCOC(=O)N[C@H](C(=O)OC)C(C)C)CC[C@@H]23)[C@@]2(C)CC[C@@H](O)C[C@@H]12 [Example 154] | 100 to 1000 nM | 138%
CC[C@H]1[C@@H](O)[C@@H]2[C@H](CC[C@]3(C)[C@@H]([C@H](C)CCOC(=O)NS(=O)(=O)N4CCOCC4)CC[C@@H]23)[C@@]2(C)CC[C@@H](O)C[C@@H]12 [Example 59] | < 100 nM | 428%
CC[C@H]1[C@@H](O)[C@@H]2[C@H](CC[C@]3(C)[C@@H]([C@H](C)CCOC(=O)NS(=O)(=O)C4(C)CC4)CC[C@@H]23)[C@@]2(C)CC[C@@H](O)C[C@@H]12 [Example 49] | < 100 nM | 269%
CC[C@H]1[C@@H](O)[C@@H]2[C@H](CC[C@]3(C)[C@@H]([C@H](C)CCCOC(=O)NS(=O)(=O)c4cccc(C(C)(C)C)c4)CC[C@@H]23)[C@@]2(C)CC[C@@H](O)C[C@@H]12 [Example 112] | 100 to 1000 nM | 123%
CC[C@H]1[C@@H](O)[C@@H]2[C@H](CC[C@]3(C)[C@@H]([C@H](C)CCOC(=O)NS(=O)(=O)CC)CC[C@@H]23)[C@@]2(C)CC[C@@H](O)C[C@@H]12 [Example 98] | 100 to 1000 nM | 279%
CC[C@H]1[C@@H](O)[C@@H]2[C@H](CC[C@]3(C)[C@@H]([C@H](C)CCOC(=O)N4CCCCC4CO)CC[C@@H]23)[C@@]2(C)CC[C@@H](O)C[C@@H]12 (some centres unmarked) [Example 180] | 100 to 1000 nM | 390%
CC[C@H]1[C@@H](O)[C@@H]2[C@H](CC[C@]3(C)[C@@H]([C@H](C)CCOC(=O)N[C@H]4CCCC[C@@H]4O)CC[C@@H]23)[C@@]2(C)CC[C@@H](O)C[C@@H]12 [Example 168] | 100 to 1000 nM | 302%
CC[C@H]1[C@@H](O)[C@@H]2[C@H](CC[C@]3(C)[C@@H]([C@H](C)CCOC(=O)NS(=O)(=O)c4cccc(Cl)c4)CC[C@@H]23)[C@@]2(C)CC[C@@H](O)C[C@@H]12 [Example 65] | < 100 nM | 322%
CC[C@H]1[C@@H](O)[C@@H]2[C@H](CC[C@]3(C)[C@@H]([C@H](C)CCOC(=O)N4C[C@@H](C)O[C@@H](C)C4)CC[C@@H]23)[C@@]2(C)CC[C@@H](O)C[C@@H]12 [Example 182] | 100 to 1000 nM | 419%
CC[C@H]1[C@@H](O)[C@@H]2[C@H](CC[C@]3(C)[C@@H]([C@H](C)COC(=O)NS(=O)(=O)c4ccc(O)cc4)CC[C@@H]23)[C@@]2(C)CC[C@@H](O)C[C@@H]12 [Example 39] | 100 to 1000 nM | 182%
CC[C@H]1[C@@H](O)[C@@H]2[C@H](CC[C@]3(C)[C@@H]([C@H](C)CCOC(=O)NC(C)CO)CC[C@@H]23)[C@@]2(C)CC[C@@H](O)C[C@@H]12 (some centres unmarked) [Example 139] | 100 to 1000 nM | 310%
CC[C@H]1[C@@H](O)[C@@H]2[C@H](CC[C@]3(C)[C@@H]([C@H](C)CCOC(=O)NCCCCCO)CC[C@@H]23)[C@@]2(C)CC[C@@H](O)C[C@@H]12 [Example 174] | < 100 nM | 228%
CC[C@H]1[C@@H](O)[C@@H]2[C@H](CC[C@]3(C)[C@@H]([C@H](C)CCOC(=O)N4CCC4)CC[C@@H]23)[C@@]2(C)CC[C@@H](O)C[C@@H]12 [Example 162] | 100 to 1000 nM | 277%
CC[C@H]1[C@@H](O)[C@@H]2[C@H](CC[C@]3(C)[C@@H]([C@H](C)COC(=O)NS(=O)(=O)c4ccc(-c5ccc(OC(F)(F)F)cc5)s4)CC[C@@H]23)[C@@]2(C)CC[C@@H](O)C[C@@H]12 [Example 26] | 100 to 1000 nM | 206%
CC[C@H]1[C@@H](O)[C@@H]2[C@H](CC[C@]3(C)[C@@H]([C@H](C)CCOC(=O)NS(=O)(=O)c4cccc(F)c4)CC[C@@H]23)[C@@]2(C)CC[C@@H](O)C[C@@H]12 [Example 66] | 100 to 1000 nM | 320%
CC[C@H]1[C@@H](O)[C@@H]2[C@H](CC[C@]3(C)[C@@H]([C@H](C)CCOC(=O)NS(=O)(=O)C[C@]45CCC(CC4=O)C5(C)C)CC[C@@H]23)[C@@]2(C)CC[C@@H](O)C[C@@H]12 [Example 58] | < 100 nM | 366%
CC[C@H]1[C@@H](O)[C@@H]2[C@H](CC[C@]3(C)[C@@H]([C@H](C)CCOC(=O)NS(=O)(=O)N4CCCC4)CC[C@@H]23)[C@@]2(C)CC[C@@H](O)C[C@@H]12 [Example 51] | < 100 nM | 218%
